# Data taken from publication PMC9124818 (Pharmacology Research & Perspectives, 2022).
# Read-outs that look alike come from different tables or passages of the source.
# What was measured:
# [1] = test system: cultured human hepatocytes; test: Cytotoxicity: LDH release and microscopic evaluation; type: cell-based
# Description: Data were processed with KC4 Signature software (version 3.4, Rev 21, BioTek Instruments, Inc.) and graphed with Microsoft Excel 2003 (Microsoft Corp.). Percent LDH release was calculated based on the following equations: […]
# [2] = target: T1, P‐gp (Homo sapiens, UniProt P08183); test: Transporter inhibition, bidirectional permeability of digoxin in Caco-2 cells; type: in vitro ADME
# T1 construct: host or cells: Caco-2
# T1 sequence (P08183 whole entry): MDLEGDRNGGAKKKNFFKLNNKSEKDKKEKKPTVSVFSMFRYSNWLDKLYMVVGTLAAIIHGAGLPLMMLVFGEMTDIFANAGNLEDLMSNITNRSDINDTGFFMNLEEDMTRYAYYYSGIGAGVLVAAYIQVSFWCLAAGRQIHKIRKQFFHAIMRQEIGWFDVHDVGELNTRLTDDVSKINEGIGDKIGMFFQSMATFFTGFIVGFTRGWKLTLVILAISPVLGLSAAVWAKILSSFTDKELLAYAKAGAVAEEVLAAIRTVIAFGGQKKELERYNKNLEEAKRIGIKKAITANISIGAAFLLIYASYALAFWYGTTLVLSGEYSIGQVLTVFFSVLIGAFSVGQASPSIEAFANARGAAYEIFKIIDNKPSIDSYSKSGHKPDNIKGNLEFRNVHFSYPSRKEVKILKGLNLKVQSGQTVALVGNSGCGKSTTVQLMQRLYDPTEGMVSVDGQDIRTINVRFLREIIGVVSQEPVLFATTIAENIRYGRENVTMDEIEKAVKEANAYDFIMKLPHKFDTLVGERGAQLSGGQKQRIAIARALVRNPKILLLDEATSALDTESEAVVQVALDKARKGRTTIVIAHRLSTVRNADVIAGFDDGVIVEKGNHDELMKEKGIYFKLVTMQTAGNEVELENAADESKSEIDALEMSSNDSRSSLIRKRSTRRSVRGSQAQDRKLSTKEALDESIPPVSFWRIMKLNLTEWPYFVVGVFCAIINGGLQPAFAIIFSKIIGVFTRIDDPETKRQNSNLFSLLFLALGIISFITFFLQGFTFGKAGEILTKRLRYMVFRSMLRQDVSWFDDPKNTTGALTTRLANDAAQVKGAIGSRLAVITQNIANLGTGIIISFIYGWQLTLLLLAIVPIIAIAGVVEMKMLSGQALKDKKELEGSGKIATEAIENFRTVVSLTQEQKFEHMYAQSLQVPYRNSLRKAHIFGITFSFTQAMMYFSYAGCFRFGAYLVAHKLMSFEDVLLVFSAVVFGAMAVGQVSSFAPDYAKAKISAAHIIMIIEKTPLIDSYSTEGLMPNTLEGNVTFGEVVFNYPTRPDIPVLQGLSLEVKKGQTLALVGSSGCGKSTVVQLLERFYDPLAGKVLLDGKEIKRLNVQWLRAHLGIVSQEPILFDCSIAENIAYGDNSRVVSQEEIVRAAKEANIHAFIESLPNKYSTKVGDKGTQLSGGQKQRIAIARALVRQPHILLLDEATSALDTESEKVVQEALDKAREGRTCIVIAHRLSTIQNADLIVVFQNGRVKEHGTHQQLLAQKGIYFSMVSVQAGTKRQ
# Description: The test compound (FFA or nFFA) or the positive control substrate ([…], respectively) was added to the donor chamber. […] Cells were then washed, lysed with scintillation cocktail, and analyzed for the probe substrate with a MicroBeta scintillation counter (PerkinElmer, Hopkinton, MA). Transcellular transporter assay conditions are described in Supplemental Table 1. Calculation of IC50 values was based on bidirectional permeability of probe substrate with and without the inhibitor in MDCKII cells expressing BCRP and in Caco‐2 cells expressing P‐gp, and transporter‐dependent uptake of probe substrate in HEK293 cells expressing all other transporters (Supplemental Table 1).
# The net flux for human epithelial colorectal adenocarcinoma cells (Caco-2; P-gp) and MDCKII-BCRP inhibition determination was calculated according to the equation: […]
# [3] = target: T2, CYP1A2 (Homo sapiens, UniProt P05177); test: Direct CYP450 inhibition in human liver microsomes (phenacetin O-dealkylation)
# T2 sequence (P05177 1-516): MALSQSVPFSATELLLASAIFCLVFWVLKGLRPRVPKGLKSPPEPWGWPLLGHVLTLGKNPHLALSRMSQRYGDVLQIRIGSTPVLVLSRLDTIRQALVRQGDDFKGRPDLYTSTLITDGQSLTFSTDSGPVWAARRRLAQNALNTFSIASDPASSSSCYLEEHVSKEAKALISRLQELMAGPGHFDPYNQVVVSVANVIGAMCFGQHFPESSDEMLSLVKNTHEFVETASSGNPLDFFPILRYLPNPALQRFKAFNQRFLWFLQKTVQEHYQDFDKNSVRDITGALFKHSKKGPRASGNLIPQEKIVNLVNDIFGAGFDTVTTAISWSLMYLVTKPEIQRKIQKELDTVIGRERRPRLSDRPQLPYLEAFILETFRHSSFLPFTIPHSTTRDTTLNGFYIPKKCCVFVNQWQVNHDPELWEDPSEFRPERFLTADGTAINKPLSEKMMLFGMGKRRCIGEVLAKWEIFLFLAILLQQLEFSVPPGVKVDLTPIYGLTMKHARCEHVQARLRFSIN
# Description: (§5) A mixed‐gender pool of 200 individual human liver microsomal samples was used.
# (§6) This LIMS utilizes the Levenberg-Marquardt algorithm to perform nonlinear regression fitting of the data to the following 4-parameter sigmoidal-logistic IC50 equation:
# (§7) As percent of control values are utilized, the Min is set to 0 and the Max is set to 100 (or other values, as appropriate). […] Therefore, when an IC50 value falls outside the concentration range studied, the IC50 values are reported to be greater than the highest concentrations of test article evaluated.
# [4] = test system: CYP3A4 mRNA; test: in vitro; details: for EC50: ± standard error
# Description: (§1) Cells were then harvested to isolate RNA, which was analyzed by quantitative reverse transcription‐polymerase chain reaction (qRT‐PCR) for induction of CYP1A2, CYP2B6, and CYP3A4 mRNA levels. Total RNA was phase extracted with TRIzol followed by purification with an RNeasy Mini Kit (Qiagen Inc., Germantown, MD). Quantitative PCR was performed in triplicate with a 7900HT Fast Real Time PCR System, an Applied Biosystems Universal Master Mix, and TaqMan® Gene Expression Assays. The quantity of target cDNA relative to control cDNA (GAPDH) was determined by the ΔΔCT method (Applied Biosystems User Bulletin #2). Relative quantitation measures the change in mRNA expression in a test sample relative to that in the control sample (i.e., DMSO). This method assumes that the efficiency of target amplification and the efficiency of endogenous control amplification are approximately equal.
# (§2) mRNA assessment was conducted using a quantitative reverse transcription-polymerase chain reaction (qRT-PCR) according to the Applied Biosystems protocol. Each PCR was performed in triplicate. A Primer Mix was prepared for each Gene Expression assay. A typical Primer Mix contained TaqMan Fast Advanced Master Mix (1X), Gene Expression Assay (1X, 900 nM forward and reverse primers) and ribonuclease (RNase)-free water. The Reaction Mix was prepared by adding the Primer Mix to cDNA. A percentage of samples (no less than 10%) included NACs. […] The relative quantity of the target cDNA compared with that of the control cDNA (GAPDH) was determined by the ΔΔCt method (Applied Biosystems User Bulletin #2). Relative quantitation measures the change in mRNA expression in a test sample relative to that in a control sample (eg, dimethyl sulfoxide [DMSO]). This method assumes that the efficiency of the target amplification and the efficiency of the endogenous control amplification are approximately equal.
# (§3) This software analyzes relative gene expression using the comparative Ct method (ΔΔCt), which relates the PCR signal of the target transcript to the PCR signal of the target in an untreated control. Both the treated sample and the untreated control signals are normalized to the endogenous control (GAPDH), for which expression is not affected by treatment and expression is constant throughout the tissue being tested.
# (§4) The level of mRNA expression relative to the positive control was calculated as follows: […]
# [5] = test system: CYP2B6 mRNA; test: CYP450 induction in cultured human hepatocytes, mRNA by qRT-PCR; type: cell-based; details: for Basic kinetic model: R3: per FDA Guidance (2020); for EC50 at 3 days: human, cultured cryopreserved hepatocytes, ± standard error, read-out: Basic kinetic model: EC50
# Description: as §1, §2, §3, §4
# [6] = Pharmacokinetic input parameters of the mechanistic static model (population pharmacokinetics)
# [7] = target: CYP2C19 (Homo sapiens, UniProt P33261); test: Direct CYP450 inhibition in human liver microsomes (S-mephenytoin 4'-hydroxylation)
# Chain of CYP2C19 (P33261 whole entry): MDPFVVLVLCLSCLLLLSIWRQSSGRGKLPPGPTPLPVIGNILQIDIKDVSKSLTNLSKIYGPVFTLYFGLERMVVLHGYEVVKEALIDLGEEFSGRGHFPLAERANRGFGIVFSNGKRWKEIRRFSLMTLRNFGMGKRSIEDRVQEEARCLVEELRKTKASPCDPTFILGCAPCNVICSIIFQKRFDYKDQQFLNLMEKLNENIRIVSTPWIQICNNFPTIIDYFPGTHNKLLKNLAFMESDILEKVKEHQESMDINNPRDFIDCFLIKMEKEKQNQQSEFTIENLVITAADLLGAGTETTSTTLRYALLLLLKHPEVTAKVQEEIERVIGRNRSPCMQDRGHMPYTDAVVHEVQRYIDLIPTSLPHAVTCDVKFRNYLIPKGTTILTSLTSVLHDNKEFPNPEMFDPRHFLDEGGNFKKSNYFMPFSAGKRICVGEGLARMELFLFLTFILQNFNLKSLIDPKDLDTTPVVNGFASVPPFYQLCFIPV
# Description: as §5, §6, §7
structure (smiles),measurement,setting,value
"CCNC(C)Cc1cccc(C(F)(F)F)c1 (racemic) [FFA, (RS)‐ethyl(α‐methyl‐3‐trifluoromethylphenethyl)amine, reference compound]",hepatocyte morphology,[1]; up to 40 μM FFA or 50 μM nFFA for 3 consecutive days,No morphological changes
same,LDH release,"[1]; up to 40 μM FFA or 50 μM nFFA, all three hepatocyte cultures",≤ 8.5 % positive control
same,IC50,[2],> 100 µM
same,IC50,[3],> 60 µM
same,Basic model: Potential for clinical inhibition,[3]; substrate phenacetin,No (Potential to inhibit if R1 ≥ 1.02)
same,Static mechanistic model: Potential for clinical inhibition,[3]; substrate phenacetin,No (Potential to inhibit if AUCR ≥ 1.25)
same,Static mechanistic model: Potential to induce,[4],No (key: Yes: AUCR <0.8 to denote induction; No: AUCR <0.8 to denote induction)
same,EC50,"[4]; human, Basic kinetic model: EC50, hepatocytes HC7‐8",8.53 ± 4.3 µM
same,EC50,"[4]; human, Basic kinetic model: EC50, hepatocytes HC10‐8",20.4 ± 1.9 µM
same,EC50,"[4]; human, Basic kinetic model: EC50, hepatocytes HC10‐10",9.05 ± 3.6 µM
same,CYP3A4 induction (abstract),"[4]; human, hepatocytes",1.9-3.0 fold
same,CYP2B6 induction (abstract),[5]; cultured human hepatocytes,up to 2.8 fold
same,Basic kinetic model: Potential to induce,[5]; hepatocytes HC7‐8,No
same,Static mechanistic model: Potential to induce,[5]; hepatocytes HC7‐8,No (AUCR <0.8 to denote induction)
same,Basic kinetic model: R3,[5]; hepatocytes HC7‐8,0.87
same,Basic kinetic model: Potential to induce,[5]; hepatocytes HC10‐8,Yes
same,Static mechanistic model: Potential to induce,[5]; hepatocytes HC10‐8,No (AUCR <0.8 to denote induction)
same,Basic kinetic model: R3,[5]; hepatocytes HC10‐8,0.77
same,Basic kinetic model: Potential to induce,[5]; hepatocytes HC10‐10,Yes
same,Static mechanistic model: Potential to induce,[5]; hepatocytes HC10‐10,No (AUCR <0.8 to denote induction)
same,Basic kinetic model: R3,[5]; hepatocytes HC10‐10,0.76
same,EC50 at 3 days,"[5]; lot HC7-8, hepatocytes HC7‐8",8.32 ± 2.1 µM
same,EC50 at 3 days,"[5]; lot HC10-8, hepatocytes HC10‐8",13.6 ± 1.5 µM
same,EC50 at 3 days,"[5]; lot HC10-10, hepatocytes HC10‐10",4.61 ± 3.3 µM
same,Portal inlet [I]h,[6]; calculated as (Imax + (Fa × Fg × ka × molar dose) / Qh) / Rb,0.362 µM
same,"Cmax, unbound","[6]; calculated as Cmax, total (ng/mL)/MW * fu",0.162 µM
same,IC50,[7],> 60 µM
same,Inhibition (%),"[7]; direct inhibition, substrate S-mephenytoin, FFA up to 60 µM, nFFA up to 100 µM",14%
same,Basic model: Potential for clinical inhibition,[7]; substrate S-mephenytoin,No (Potential to inhibit if R1 ≥ 1.02)
same,Static mechanistic model: Potential for clinical inhibition,[7]; substrate S-mephenytoin,No (Potential to inhibit if AUCR ≥ 1.25)
same,Basic model: R1,"[7]; substrate S-mephenytoin, R1 = 1 + (Imax,u/Ki,u)",1.01
